# Data as given in article PMC7614683, “A small molecule PI3Kα activator for cardioprotection and neuroregeneration” (Nature, 2023).
# Experiments:
# [1] = tested on: PI3Kα-KO MEFs; assay: CellTiter-Glo cell assay, PI3Kα-KO MEFs; type: cell-based, mouse; settings: 24h
# Procedure: MEFs were seeded at 5000 cells per well in 96-well plates in DMEM supplemented with 10% FBS and 1% P/S, and allowed to attach overnight. The next day, cells were serum starved for 4 h prior to compound treatment in fresh serum-free DMEM. Compounds solubilised in DMSO were diluted 1:2 in a 12-point concentration response curve in DMSO. Intermediate plates were prepared by transferring 4 μl of compounds in DMSO into 96 μl of serum-free DMEM media. This was then used to treat cell plates by transferring 12.5 μl of solution from the intermediate plate into 87.5 μl of serum-free DMEM in the cell plates. […] Cell plates were incubated for 24 h, 48 h or 72 h at 37°C, 5% CO2, followed by determination of cell survival using the CellTiter-Glo® reagent according to manufacturer’s instructions (Promega #G7571). Endpoint luminescence was measured using CLARIOstar (BMG). Compound data were analyzed using GraphPad Prism 8.
# [2] = tested on: adult rat DRG neurons; assay: Neurite outgrowth in dissociated adult rat dorsal root ganglion cultures; type: cell-based; settings: 72h; BYL719 500 nM with 1938 above 10^-7 M
# Text: Dissociated adult rat dorsal root ganglion (DRG) cultures were used as an in vitro model for neuroregeneration[80],[81]. DRG neurons were isolated from adult male (>250g) Wistar rats as described, with DRGs from each rat cultured separately. Following culling via schedule 1 (rising concentration of CO2), the spinal column was removed and stored in PBS on ice. Cord tissue was removed to expose the DRGs and roots in the intervertebral foramen and the DRGs removed with forceps and scalpel under a dissecting microscope (Olympus SZ40). DRGs were manually cleaned by removal of roots, capsule and capillaries with forceps and then placed in DMEM supplemented with P/S. DRGs were treated with 0.125% collagenase type IV solution at 37°C for 90 min, and then mechanically dissociated by trituration using a 1 ml pipette. The collagenase solution was removed by 2 rounds of centrifugation in complete DMEM (DMEM with 1% P/S and 10% FBS) at 400 xg for 5 min, followed by resuspension of the DRG cell pellet in complete DMEM supplemented with 0.01 mM cytosine arabinoside. DRGs were plated in 75-cm[2] flasks coated with 0.1 mg/ml poly-D-lysine and incubated at 37°C, 5% CO2. […] 9 fields per well were captured and analysed using the CSIRO Neurite Analysis 2 […] in Columbus analysis software (Perkin Elmer). […]
smiles,measurement,setting,value
CCN1CCN(c2ccc(Nc3cc(Nc4cccc5c4N(C(C)=O)CC5)ccn3)cc2)CC1 [Compound 1938],concentrations with a decrease in ATP levels (PI3Kα-independent effects),[1],> 7.5 µM
same,neurite outgrowth (total length of neurites),[2],doubling the total length of neurites
